Data as given in PubChem BioAssay AID330 (DTP/NCI, 2004).
Several values for one entry are separate records, joined by “and”; a condition that tells them apart may be missing. Identical values can stand only once. Inconclusive results and toxic doses are left out.

System: P388 leukemia ip, CD2F1 mice, survival T/C
Experiment: NCI In Vivo Anticancer Drug Screen. Data for tumor model P388 Leukemia (intraperitoneal) in CD2F1 (CDF1) mice
Conditions: endpoint: median survival time, higher = longer survival
Method in brief: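 Mice carrying the transplanted tumor received test compound or vehicle. Survival was recorded in each group, and the value is the treated-group measurement divided by that of the vehicle-treated control group.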

[1] = dose: 50.0 mg/kg/injection, schedule: Q01DX009 (ip), vehicle: saline
[2] = dose: 100.0 mg/kg/injection, schedule: Q01DX009 (ip), vehicle: saline

O=NN(CCCCl)C(=O)NC1CCCCC1
T/C (dose: 12.5 mg/kg/injection, schedule: Q01DX009 (ip), vehicle: saline): 86 % of control
T/C (dose: 25.0 mg/kg/injection, schedule: Q01DX009 (ip), vehicle: saline): 98 % of control
T/C [1]: 104 % of control
T/C [2]: 107 % of control

CC(C)OC(=O)CC1NS(=O)(=O)c2ccccc21 (stereo not given)
T/C (dose: 50.0 mg/kg/injection, schedule: Q01DX005 (ip), vehicle: suspension in saline): 103 % of control
T/C (dose: 100.0 mg/kg/injection, schedule: Q01DX005 (ip), vehicle: suspension in saline): 103 % of control
T/C (dose: 200.0 mg/kg/injection, schedule: Q01DX005 (ip), vehicle: suspension in saline): 100 % of control

COc1ccc2c(c1)CCC1=C2CCC2(C)C1=CCS2(=O)=O (stereo not given)
T/C (dose: 60.0 mg/kg/injection, schedule: Q01DX005 (ip), vehicle: Klucel (hydroxypropylcellulose) (HPC)): 105 % of control
T/C (dose: 120.0 mg/kg/injection, schedule: Q01DX005 (ip), vehicle: Klucel (hydroxypropylcellulose) (HPC)): 90 % of control
T/C (dose: 240.0 mg/kg/injection, schedule: Q01DX005 (ip), vehicle: Klucel (hydroxypropylcellulose) (HPC)): 97 % of control

C=CCC1(CC=C)CC1OCC (stereo not given)
T/C (dose: 50.0 mg/kg/injection, schedule: Q01DX005 (ip), vehicle: saline): 98 % of control
T/C (dose: 100.0 mg/kg/injection, schedule: Q01DX005 (ip), vehicle: saline): 100 % of control
T/C (dose: 200.0 mg/kg/injection, schedule: Q01DX005 (ip), vehicle: saline): 100 % of control

CN1CCCC(O)(C(=O)c2ccccc2)C1 (stereo not given)
T/C [1]: 108 % of control
T/C [2]: 90 % of control
T/C (dose: 100.0 mg/kg/injection, schedule: Q04DX003 (ip), vehicle: Klucel (hydroxypropylcellulose) (HPC)): 102 % of control
T/C (dose: 200.0 mg/kg/injection, schedule: Q01DX009 (ip), vehicle: saline): 90 % of control
T/C (dose: 200.0 mg/kg/injection, schedule: Q04DX003 (ip), vehicle: Klucel (hydroxypropylcellulose) (HPC)): 104 % of control

CC1=CC(=O)C(O)C2(C)C1CC1OC(=O)C(OC3OC(CO)C(O)C(O)C3O)C3C(C)C(O)C4(O)OCC13C42 (stereo not given)
T/C (dose: 0.25 mg/kg/injection, schedule: Q01DX005 (ip), vehicle: water): 101 % of control
T/C (dose: 0.5 mg/kg/injection, schedule: Q01DX005 (ip), vehicle: water): 102 % of control

CN=NNCc1ccccc1
T/C (dose: 1.56 mg/kg/injection, schedule: Q01DX005 (ip), vehicle: saline): 100 % of control and 102 % of control
T/C (dose: 3.12 mg/kg/injection, schedule: Q01DX005 (ip), vehicle: saline): 98 % of control and 103 % of control
T/C (dose: 6.25 mg/kg/injection, schedule: Q01DX005 (ip), vehicle: saline): 102 % of control and 105 % of control
T/C (dose: 12.5 mg/kg/injection, schedule: Q01DX005 (ip), vehicle: saline): 93 % of control

COCC1OC2OC3C(COC)OC(OC4C(COC)OC(OC5C(COC)OC(OC6C(COC)OC(OC7C(COC)OC(OC8C(COC)OC(OC1C(O)C2O)C(O)C8O)C(O)C7O)C(O)C6O)C(O)C5O)C(O)C4O)C(O)C3O (stereo not given) (tested in a mixture with another compound)
T/C (dose: 25.0 mg/kg/injection, schedule: Q01DX009 (ip), vehicle: Klucel (hydroxypropylcellulose) (HPC)): 100 % of control and 102 % of control
T/C (dose: 50.0 mg/kg/injection, schedule: Q01DX009 (ip), vehicle: Klucel (hydroxypropylcellulose) (HPC)): 99 % of control and 100 % of control
T/C (dose: 100.0 mg/kg/injection, schedule: Q01DX009 (ip), vehicle: Klucel (hydroxypropylcellulose) (HPC)): 98 % of control
T/C (dose: 200.0 mg/kg/injection, schedule: Q01DX009 (ip), vehicle: Klucel (hydroxypropylcellulose) (HPC)): 95 % of control and 97 % of control
T/C (dose: 400.0 mg/kg/injection, schedule: Q01DX009 (ip), vehicle: Klucel (hydroxypropylcellulose) (HPC)): 93 % of control and 95 % of control

COc1cc2c(c(OC)c1OC)-c1ccc(OC)c(=O)cc1[C@@H](N(C)C=O)CC2
T/C (dose: 1.25 mg/kg/injection, schedule: Q01DX009 (ip), vehicle: Klucel (hydroxypropylcellulose) (HPC)): 171 % of control

COC(=O)CN(C)P(=O)(N1CC1)N1CC1
T/C (dose: 1.87 mg/kg/injection, schedule: Q01DX005 (ip), vehicle: saline): 107 % of control
T/C (dose: 3.75 mg/kg/injection, schedule: Q01DX005 (ip), vehicle: saline): 124 % of control
T/C (dose: 7.5 mg/kg/injection, schedule: Q01DX005 (ip), vehicle: saline with Tween-80): 198 % of control
T/C (dose: 15.0 mg/kg/injection, schedule: Q01DX005 (ip), vehicle: saline): 197 % of control

CNC(=O)OCc1c(Cl)nc2sccn12
T/C (dose: 100.0 mg/kg/injection, schedule: Q01DX001 (ip), vehicle: Klucel (hydroxypropylcellulose) (HPC)): 109 % of control
T/C (dose: 200.0 mg/kg/injection, schedule: Q01DX001 (ip), vehicle: Klucel (hydroxypropylcellulose) (HPC)): 100 % of control
T/C (dose: 400.0 mg/kg/injection, schedule: Q01DX001 (ip), vehicle: Klucel (hydroxypropylcellulose) (HPC)): 100 % of control

COC(=O)C12C=CC(C(=O)OC)(CC1)n1c(=O)n(-c3ccccc3)c(=O)n12
T/C (dose: 50.0 mg/kg/injection, schedule: Q01DX005 (ip), vehicle: saline with Tween-80): 107 % of control
T/C (dose: 100.0 mg/kg/injection, schedule: Q01DX005 (ip), vehicle: saline with Tween-80): 100 % of control
T/C (dose: 200.0 mg/kg/injection, schedule: Q01DX005 (ip), vehicle: saline with Tween-80): 100 % of control
